Tests used:
[1] = tested on: animal cap cells (pluripotent cell aggregates) at the blastula stage; settings: activin at a high concentration; cited from earlier work
[2] = tested on: embryoid bodies from ES cells (E14 cells or B6 cells); assay: Formation of heart (autonomically beating cardiac muscle-like cell aggregates) from embryoid bodies using RXR ligand; assay type: cell-based, mouse; design: frequency of appearance of autonomically beating cardiac muscle-like cell aggregates: dose or concentration left out as unconfirmed
Method: (§1) As ES cells, E 14 cells of the 29 mouse strain (ATCC #: CRL-1821) or B6 cells of the C57BL mouse strain (ATCC #: SCRC-1002) were used. Mouse fetal fibroblasts prepared from a mouse embryo on the 13th day were inoculated on a 0.1% gelatin-coated culture dish, and cultured in a medium containing 12% fetal bovine serum (Gibco), 100 U/ml penicillin (Sigma) and 100 μg/ml streptomycin (Sigma) for 24 hours. These cells were treated with 10 μg/ml mytomicin C (MMC, Sigma) for four hours to inhibit cell division and then washed twice with phosphate-buffered saline (PBS) to remove MMC. The ES cells were inoculated on these fibroblasts (feeder). As the medium for the ES cells, D-MEM (high glucose, Gibco) containing 15% fetal bovine serum for ES (Gibco), 2 mM L-glutamine (Gibco), MEM non-essential amino acid (Sigma), 1 mM sodium pyruvate (Gibco), 0.0007% β-mercaptoethanol (Sigma), 1000 U/ml Leukemia inhibiting factor (Chemicon), 100 U/ml penicillin (Sigma) and 100 μg/ml streptomycin (Sigma) was used, and the cells were cultured in a CO2 incubator (5% CO2, 100% humidity) at 37° C. The medium was exchanged every day.
(§2) Subculture was performed 72 hours after the inoculation of the ES cells. MMC-treated feeder cells (mouse fetus fibroblasts) were inoculated on a gelatin-coated culture dish, and after 24 hours, the ES cells completely dissociated by a treatment with 0.05% trypsin-0.02% EDTA were inoculated to allow formation of colonies (see, FIG. 1). The ES cells were cultured for three days after the inoculation to allow formation of colonies, and a colony was isolated by pipetting and then inoculated on a culture dish for bacteria with an extremely low cell attachment property. As the medium, D-MEM (high glucose) containing 15% Knockout SR (KSR, Gibco), 100 U/ml penicillin and 100 μg/ml streptomycin was used. The cells were further cultured for three days under this condition to prepare embryoid bodies (FIG. 2). […]

[3] = tested on: embryoid bodies from ES cells; assay: Formation of adipocytes from embryoid bodies using RXR ligand; assay type: cell-based, mouse; design: adipocytes formed in comparison with the control group (all-trans retinoic acid): dose or concentration left out as unconfirmed
Method: as §1, §2

[4] = tested on: embryoid bodies from ES cells; assay: Formation of smooth muscle-like cells from embryoid bodies using RXR ligand; assay type: cell-based, mouse; settings: 1×10^−5 to 2×10^−6 M PA024, then further cultured
Method: as §1
Subculture was performed 72 hours after the inoculation of the ES cells. […]

For activin, the “formation rate of rhythmically beating heart” value [1] is listed as 60%.
In the case of `CC1=C(/C=C/C(C)=C/C=C/C(C)=C/C(=O)O)C(C)(C)CCC1` [all-trans retinoic acid], the “differentiation of cardiac muscle-like cells” value ([2]; control group treated with 1×10^−5 M, over two weeks after the treatment) is reported as “almost no differentiation”.
In the case of `CC1(C)CCC(C)(C)c2cc(N(CC3CC3)c3ncc(C(=O)O)cn3)ccc21` [PA024, 2-[N-cyclopropylmethyl-N-(5,6,7,8-tetrahydro-5,5,8,8-tetramethylnaphthalen-2-yl)amino]pyrimidine-5-carboxylic acid], the “time of appearance of adipocytes” value ([3]; 1×10^−5 to 2×10^−6 M PA024) is reported as “about two”, the “adipocyte formation in terms of the value per embryoid body” value ([3]; 1×10^−5 to 2×10^−6 M PA024, culture continued for 20 days) is reported as about 100% and the “adipocytes formed in comparison with the control group (all-trans retinoic acid)” value ([3]; PA024 treated group versus all-trans retinoic acid control) is reported as “two or three times more”. For the same compound, the “formation of cardiac muscle-like cell aggregates” value ([2]; 2×10−6 M PA024) was 0.5 cell aggregate per embryoid body, the “frequency of appearance of autonomically beating cardiac muscle-like cell aggregates” value ([2]; PA024, cultured for 2 days) was 0.2 cell aggregate per embryoid body and the “time of formation of smooth muscle-like cells” value [4] was “one to two”.

— patent US8105833B2, “Method for forming organ” (Research Foundation Itsuu Laboratory, priority 2003, dated 2012)
